# Experiments:
# Type in all cases: functional
# [1] = system: PC-12; assay: Antioxidant activity against H2O2-induced cell damage in rat PC12 cells assessed as cell viability at 1 uM after 24 hrs by MTT assay (reference value: 64.34 +/- 1.02 %); conditions: for viability at 1 µM: PC-12, 24 h, read-out: Activity
# [2] = system: PC-12; assay: Antioxidant activity against H2O2-induced cell damage in rat PC12 cells assessed as cell viability at 10 uM after 24 hrs by MTT assay (reference value: 64.34 +/- 1.02 %); conditions: PC-12, 24 h, read-out: Activity
# [3] = system: PC-12; assay: Antioxidant activity against H2O2-induced cell damage in rat PC12 cells assessed as cell viability at 5 uM after 24 hrs by MTT assay (reference value: 64.34 +/- 1.02 %); conditions: PC-12, 24 h, read-out: Activity
Compound,viability at 1 µM [1] [%],viability at 10 µM [2] [%],viability at 5 µM [3] [%],Activity [1] [%]
C=C1CC[C@H]2C(C)(C)[C@@H](O)CC[C@]2(C)[C@H]1C/C=C1\CCOC1=O,66.9,67.4,67.1,–
CC1=C2C[C@@]34O[C@]2(OC1=O)[C@H](O)[C@](C)(O)[C@@H]3CC[C@H]4C,73.7,79.8,77.7,–
CC1=C2CC[C@](C)(O)[C@H]2CC2=C(C)C(=O)OC2=C1,82.9,88.7,84,–
CC1=CC(=O)C(=C(C)C)C[C@H]2[C@H]1CC[C@]2(C)O [PROCURCUMENOL],66.4,69.6,70,–
CC1=C2CC(=O)[C@@H](C)CC/C=C(\C)C[C@@]2(O)OC1=O,74.5,78.4,76.1,–
C[C@]12CCC[C@](C)(C(=O)O)[C@@H]1CC[C@@]13CC[C@@H]([C@H](O)[C@H]21)[C@]1(C)O[C@H]31,68.2,72.3,70.8,–
CC1=C2C[C@H]3[C@H](CC[C@]3(C)O)[C@@](C)(O)C[C@]2(O)OC1=O [ZEDOAROLIDE B],76.1,80.7,77,–
CC(C)C1=CC[C@@](C)(O)[C@@H]2CC[C@@](C)(O)[C@@H]2C1,69.5,77.7,77.9,–
CC1=C2C[C@H]3[C@H](CC[C@]3(C)O)[C@@](C)(O)C[C@@H]2OC1=O [ZEDOALACTONE C],73.1,81,77.3,–
CCO[C@]12C/C(C)=C/CC[C@@H](C)C(=O)CC1=C(C)C(=O)O2,77.7,85.2,80.9,–
Cc1cc2oc(=O)c(C)c-2cc2c1CC[C@H]2C,68.1,72.5,70.6,–
CC(C)=C1C[C@H]2[C@@H](CC[C@]2(C)O)[C@](C)(O)CC1=O [ZEDOARONDIOL],81.9,72.6,70.3,–
CC1=C2C[C@]34O[C@](C)(C[C@H]2OC1=O)[C@H]3CC[C@@H]4C,67.4,79.3,71.6,–
C=C[C@]1(C)C[C@@H]2OC(=O)C(C)=C2C[C@H]1C(=C)C [ISOGERMAFURENOLIDE],62.5,67.2,63.7,–
CC1=CC(=O)C(=C(C)C)C[C@@]2(O)[C@H](C)CC[C@@H]12,69.5,76.2,68.8,–
C=C1CC[C@H]2C(C)(C)CCC[C@]2(C)[C@H]1CCC1=CC(=O)OC1,67.1,72.1,70.2,–
Cc1cc(=O)c(C(C)C)cc2c1CC[C@]2(C)O,77.7,75.2,76.7,–
CC1=CC(=O)O[C@@]2(CC(=O)C(C)C)[C@@H](C)CC[C@@H]12,73.4,89,83.5,–
CC(=O)CCc1c(C)cc(O)c2c1C(=O)OC2(C)C,65.4,70.2,68.7,–
CC1(C)CCC[C@]2(C)[C@@H]1CC[C@](O)(CO)[C@H]2C/C=C1\CCOC1=O,67.6,74.1,72.2,–
CC(C)=C1C[C@]2(O)[C@@H](CC[C@@H]2C)[C@@](C)(O)CC1=O,66.3,65.2,64,–
VITAMIN E,–,–,–,80.9
CC1=CC(=O)[C@]23C[C@]24[C@@]1(O)CC[C@]4(C)OC3(C)C,72.7,77.2,74.8,–
CC1=C2CC(=O)[C@@H](C)CC/C=C(\C)C[C@H]2OC1=O,65.4,80.2,77.4,–
CC1=C2CC[C@](C)(O)[C@H]2CC2=C(C)C(=O)O[C@@]2(O)C1,82.7,74.3,76.8,–
C=C(C)C(=O)C[C@@]12OC(=O)C=C(C)[C@@H]1CC[C@@H]2C,69.3,75.9,72.4,–
CC1=C2C[C@@H]3[C@H](CC[C@@]3(C)O)[C@](C)(O)C[C@H]2OC1=O,67.5,76.4,72,–
CC1=C2C[C@@H]3[C@](C)(CCC[C@@]3(C)O)C[C@]2(O)OC1=O,81.2,90.1,80.9,–
